Laboratory results published in US6455466B1, “Compositions and methods for preventing leaf yellowing in plants” (The Regents of the University of California, priority 2000, dated 2002).

Columns and labels:
[1] = system: cut flowers of Alstroemeria (cv. diamond); assay: Leaf chlorophyll content / leaf yellowing of cut Alstroemeria flowers held in treatment solution; assay type: in vivo
Method: The model system used in the experiments was cut stems of Alstroemeria an important cut flower whose flowers normally long outlast the relatively short-lived leaves.
In a preliminary experiment with cut flowers of Alstroemeria (cv. diamond), the flowers were placed in deionized water (DI) or a solution containing 1 μM TDZ. The chlorophyll content of the leaves was measured as described by Lichenhaler, Methods in Enzymology […] (1987). […] By 20 days, there was no detectable chlorophyll in the leaves of the control flowers (see, FIG. 1).

plants = conditions: cited from earlier work

O=C(Nc1ccccc1)Nc1cnns1 [TDZ, 1-phenyl-3-(1,2,3-thiadiazol-5-yl)urea]
chlorophyll content of the leaves versus flowers held in deionized water ([1]; 1 μM TDZ solution, by 10 days): significantly higher than the concentration in leaves of flowers held in DI
effectiveness of 24 hour pulse pre-treatment ([1]; 24 hour pulse pre-treatment with 10 μM TDZ compared with continuous 1 μM TDZ): as effective as continuous treatment with 1 μM TDZ
chlorophyll content of the leaves ([1]; cut Alstroemeria flowers placed in solution containing 1 μM TDZ, throughout the experiment (FIG. 1)): remained high throughout the experiment
effectiveness compared with BAP or GA3 ([1]; subsequent experiments, cut Alstroemeria flowers): much more effective than BAP or GA3
metabolism by plants (plants): plants do not metabolize it
